Measurements as given in patent US20240173419A1, “CDK2 DEGRADERS AND USES THEREOF” (Kymera Therapeutics, Inc., priority 2022, published 2024).

Biological target: T1, CDK2 (Homo sapiens, UniProt P24941)
T1 construct: endogenous in cells; host or cells: MKN1 cells
Test: CDK2 degradation in MKN1 cells (AlphaLISA)
Type: cell-based
Details: 14 h incubation; for DC50: read-out: CDK2 degradation 14 h: Mean external-Abs DC50
Method in brief: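 MKN1 cells (2e4/well) treated 14 h at 37° C with 11-point 1:5 dilutions (0.001 nM-10 μM, 0.1% DMSO). CDK2 in lysates quantified by AlphaLISA, no-cell background subtracted; DC50 from four-parameter logistic fit.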

Structure (SMILES) | CDK2 degradation 14 h: Average Dmax % | DC50
Cc1cc(S(=O)(=O)C2CC3(CCN(CCOC4CN(c5ccc6c(c5F)n(C)c(=O)n6C5CCC(=O)NC5=O)C4)CC3)C2)ccc1Nc1ncc(C(F)(F)F)c(N2CCCC(C)(O)C2)n1 (stereo not drawn) [I-853] | B (B (>50% -75%)) | 100 to 500 nM
Cc1cc(S(=O)(=O)C2CC3(CCN(CCOC4CN(c5cccc6c5n(C)c(=O)n6C5CCC(=O)NC5=O)C4)CC3)C2)ccc1Nc1ncc(C(F)(F)F)c(N2CCCC(C)(O)C2)n1 (stereo not drawn) [I-854] | B (B (>50% -75%)) | 100 to 500 nM
Cn1c(=O)n(C2CCC(=O)NC2=O)c2ccc(N3CCC(CN4CCC5(CC4)CC(S(=O)(=O)c4ccc(Nc6ncc(C(F)(F)F)c(N7CCCC(C)(O)C7)n6)c(Cl)c4)C5)CC3)c(F)c21 (stereo not drawn) [I-855] | B (B (>50% -75%)) | < 100 nM
COCc1cnc(Nc2ccc(S(=O)(=O)C3CC4(CCN(CC5CCN(c6ccc7c(c6F)n(C)c(=O)n7C6CCC(=O)NC6=O)CC5)CC4)C3)cc2C)nc1N1CCCC(C)(O)C1 (stereo not drawn) [I-856] | D (D (<25%)) | > 1000 nM
Cc1cc(S(=O)(=O)NC(C)COC2CCC(CN3CCN(c4ccc5c(c4F)n(C)c(=O)n5C4CCC(=O)NC4=O)CC3)CC2)ccc1Nc1ncc(C(F)(F)F)c(N2CCC(C(C)(C)O)C2)n1 (stereo not drawn) [I-857] | A (A (>75% o)) | < 100 nM
Cc1cc(S(=O)(=O)NC(C)COC2CCC(CN3CCN(c4ccc5c(c4F)n(C)c(=O)n5C4CCC(=O)NC4=O)CC3)CC2)ccc1Nc1ncc(C(F)(F)F)c(N2CCC(C(C)(C)O)C2)n1 (stereo not drawn) [I-858] | A (A (>75% o)) | < 100 nM
Cc1cc(S(=O)(=O)NC2CCN(CC3(C)CN(c4ccc(C5CCC(=O)NC5=O)c(Cl)c4)C3)CC2)ccc1Nc1ncc(C(F)(F)F)c(N2CCC[C@](C)(O)C2)n1 (stereo partly drawn) [I-910] | B (B (>50% -75%)) | 100 to 500 nM
Cc1cc(S(=O)(=O)NC2CC3(C2)CN(CC2CN(c4ccc(C5CCC(=O)NC5=O)c(Cl)c4)C2)C3)ccc1Nc1ncc(C(F)(F)F)c(N2CCCC(C)(O)C2)n1 (stereo not drawn) [I-928] | A (A (>75% o)) | < 100 nM
Cc1cc(S(=O)(=O)NC2CCC(CN3CCN(c4cccc(C5CCC(=O)NC5=O)c4)CC3)CC2)ccc1Nc1ncc(C(F)(F)F)c(N2CCCC(C)(O)C2)n1 (stereo not drawn) [I-929] | C (C (>25% -50%)) | > 1000 nM
Cc1cc(S(=O)(=O)NC2CCC(N3CCN(c4ccc(C5CCC(=O)NC5=O)c(Cl)c4)CC3)CC2)ccc1Nc1ncc(C(F)(F)F)c(N2CCCC(C)(O)C2)n1 (stereo not drawn) [I-930] | A (A (>75% o)) | < 100 nM
Cc1cc(S(=O)(=O)NC2CCC(CN3CCN(c4c(F)cc(C5CCC(=O)NC5=O)cc4F)CC3)CC2)ccc1Nc1ncc(C(F)(F)F)c(N2CCCC(C)(O)C2)n1 (stereo not drawn) [I-935] | A (A (>75% o)) | < 100 nM
Cc1cc(S(=O)(=O)NC2CCC(CN3CCN(c4cccc(C5CCC(=O)NC5=O)c4)CC3)CC2)ccc1Nc1ncc2c(n1)N(C1CCCC(O)C1)C(=O)C21CC1 (stereo not drawn) [I-938] | C (C (>25% -50%)) | > 1000 nM
Cc1cc(S(=O)(=O)NC2CCC(CCN3CCN(c4ccc(C5CCC(=O)NC5=O)cc4F)CC3)CC2)ccc1Nc1ncc2c(n1)N(C1CCCC(O)C1)C(=O)C21CC1 (stereo not drawn) [I-939] | B (B (>50% -75%)) | < 100 nM
Cc1cc(S(=O)(=O)NC2CCC(CN3CCN(c4cc(C)c(C5CCC(=O)NC5=O)cc4F)CC3)CC2)ccc1Nc1ncc(C(F)(F)F)c(N2CCCC(C)(O)C2)n1 (stereo not drawn) [I-940] | A (A (>75% o)) | < 100 nM
Cc1cc(S(=O)(=O)NC2CCC(CN3CCN(c4c(F)cc(C5CCC(=O)NC5=O)cc4Cl)CC3)CC2)ccc1Nc1ncc(C(F)(F)F)c(N2CCCC(C)(O)C2)n1 (stereo not drawn) [I-941] | A (A (>75% o)) | < 100 nM
Cc1cc(S(=O)(=O)NC2CCC(OC3CCN(c4ccc(C5CCC(=O)NC5=O)cc4F)CC3)CC2)ccc1Nc1ncc(C(F)(F)F)c(N2CCCC(C)(O)C2)n1 (stereo not drawn) [I-942] | A (A (>75% o)) | < 100 nM
CC1(O)CCCN(c2nc(Nc3ccc(S(=O)(=O)NC4CCC(CN5CCN(c6ccc(C7CCC(=O)NC7=O)c(F)c6)CC5)CC4)cc3)ncc2C(F)(F)F)C1 (stereo not drawn) [I-943] | A (A (>75% o)) | < 100 nM
CC1(O)CCCN(c2nc(Nc3ccc(S(=O)(=O)NC4CCC(CN5CCN(c6ccc(C7CCC(=O)NC7=O)c(F)c6)CC5)CC4)cc3C(F)F)ncc2C(F)(F)F)C1 (stereo not drawn) [I-944] | A (A (>75% o)) | < 100 nM
Cc1cc(S(=O)(=O)NC2CCC(CN3CCN(c4ccc5c(c4)n(C4CC4)c(=O)n5C4CCC(=O)NC4=O)CC3)CC2)ccc1Nc1ncc2c(n1)N(C1CCCC(O)C1)C(=O)C21CC1 (stereo not drawn) [I-947] | A (A (>75% o)) | < 100 nM
Cc1cc(S(=O)(=O)NC2CCN(CC3CCN(c4c(F)ccc5c4n(C)c(=O)n5C4CCC(=O)NC4=O)CC3)CC2F)ccc1Nc1ncc2c(n1)N(C1CCCC(O)C1)C(=O)C21CC1 (stereo not drawn) [I-949] | A (A (>75% o)) | < 100 nM

Structure (SMILES) | CDK2 degradation 14 h: Average Dmax % | DC50
O=C1CCC(c2ccc(N3CCC(CN4CCC(NS(=O)(=O)c5ccc(Nc6ncc7c(n6)N(C6CCCC(O)C6)C(=O)C76CC6)c(F)c5)C(F)C4)CC3)cc2F)C(=O)N1 (stereo not drawn) [I-950] | A (A (>75% o)) | < 100 nM
Cc1cc(S(=O)(=O)NC2CCC(CN3CCN(c4ccc(C5CCC(=O)NC5=O)cc4F)CC3C)CC2)ccc1Nc1ncc2c(n1)N(C1CCCC(O)C1)C(=O)C21CC1 (stereo not drawn) [I-966] | A (A (>75% o)) | < 100 nM
Cn1nc(N2CCC(=O)NC2=O)c2ccc(C3CCN(Cc4cccc(S(=O)(=O)N5CCC(Nc6ncc7ccc(=O)n(C8CCCC8)c7n6)CC5)c4)CC3)cc21 [I-968] | A (A (>75% o)) | < 100 nM
Cc1cc(S(=O)(=O)N2CCC(CN(C)C3CCN(c4cccc5c4n(C)c(=O)n5C4CCC(=O)NC4=O)CC3)CC2)ccc1Nc1nc(OC2CCCCC2)c2nc[nH]c2n1 (stereo not drawn) [I-970] | A (A (>75% o)) | < 100 nM
Cc1cc(S(=O)(=O)NCCOCCOCCCc2ccc3c(c2)n(C)c(=O)n3C2CCC(=O)NC2=O)ccc1Nc1ncc2c(n1)N(C1CCCC1)C(=O)C21CC1 (stereo not drawn) [I-972] | B (B (>50% -75%)) | < 100 nM
Cc1cc(S(=O)(=O)NCCOCCOCCOCCOCCCc2ccc3c(c2)n(C)c(=O)n3C2CCC(=O)NC2=O)ccc1Nc1ncc2ccc(=O)n(C3CCCC3)c2n1 (stereo not drawn) [I-973] | A (A (>75% o)) | < 100 nM
Cc1cc(S(=O)(=O)NCCOCCOCCOCCOCCCc2ccc3c(c2)n(C)c(=O)n3C2CCC(=O)NC2=O)ccc1Nc1ncc2c(n1)N(C1CCCC1)C(=O)C21CC1 (stereo not drawn) [I-974] | A (A (>75% o)) | < 100 nM
Cc1cc(S(=O)(=O)NCCCCCCc2cccc3c2n(C)c(=O)n3C2CCC(=O)NC2=O)ccc1Nc1ncc2cc(C(F)F)c(=O)n(C3CCCC3(C)O)c2n1 (stereo not drawn) [I-976] | B (B (>50% -75%)) | < 100 nM
CC1CC(NS(=O)(=O)c2ccc(Nc3ncc(C(F)(F)F)c(N4CCCC(C)(O)C4)n3)c(F)c2)CCN1CC1CCN(c2ccc(C3CCC(=O)NC3=O)c(F)c2)CC1 (stereo not drawn) [I-1037] | A (A (>75% o)) | < 100 nM
Cn1c(=O)n(C2CCC(=O)NC2=O)c2ccc(N3CCC(CN4CCC(NS(=O)(=O)c5ccc(Nc6ncc(C(F)(F)F)c(N7CCCC(C)(O)C7)n6)c(F)c5)C(F)C4)CC3)cc21 (stereo not drawn) [I-1039] | A (A (>75% o)) | < 100 nM
CC1(O)CCCN(c2nc(Nc3ccc(S(=O)(=O)N4CCN(CC5CCC(Oc6cccc(C7CCC(=O)NC7=O)c6)CC5)CC4)cc3C(F)F)ncc2C(F)(F)F)C1 (stereo not drawn) [I-1043] | D (D (<25%)) | > 1000 nM
CC1(O)CCCN(c2nc(Nc3ccc(S(=O)(=O)N4CCN(CC5CCC(Oc6ccc(C7CCC(=O)NC7=O)cc6)CC5)CC4)cc3C(F)F)ncc2C(F)(F)F)C1 (stereo not drawn) [I-1044] | D (D (<25%)) | > 1000 nM
CN(CC1CCC(NS(=O)(=O)c2ccc(Nc3ncc(C(F)(F)F)c(N4CCCC(C)(O)C4)n3)c(C(F)F)c2)CC1)C1CN(c2ccc(C3CCC(=O)NC3=O)c(F)c2)C1 (stereo not drawn) [I-1045] | B (B (>50% -75%)) | 100 to 500 nM
CC1CN(CC2CCN(c3ccc(C4CCC(=O)NC4=O)c(F)c3)CC2)CCC1NS(=O)(=O)c1ccc(Nc2ncc(C(F)(F)F)c(N3CCCC(C)(O)C3)n2)c(F)c1 (stereo not drawn) [I-1046] | A (A (>75% o)) | < 100 nM
Cc1cc(S(=O)(=O)NC2CCC(CN3CCN(c4ccc(C5CCC(=O)NC5=O)c(Cl)c4)CC3)CC2)ncc1Nc1ncc(C(F)(F)F)c(N2CCCC(C)(O)C2)n1 (stereo not drawn) [I-1047] | A (A (>75% o)) | < 100 nM
Cc1nc(S(=O)(=O)NC2CCC(CN3CCN(c4ccc(C5CCC(=O)NC5=O)c(Cl)c4)CC3)CC2)ccc1Nc1ncc(C(F)(F)F)c(N2CCCC(C)(O)C2)n1 (stereo not drawn) [I-1048] | A (A (>75% o)) | < 100 nM
Cc1nc(S(=O)(=O)NC2CCC(CN3CCN(c4ccc(C5CCC(=O)NC5=O)c(F)c4)CC3)CC2)ccc1Nc1ncc(C(F)(F)F)c(N2CCCC(C)(O)C2)n1 (stereo not drawn) [I-1049] | A (A (>75% o)) | < 100 nM
CC1(O)CCN(c2nc(Nc3ccc(S(=O)(=O)NC4CCN(CC5CCN(c6ccc(C7CCC(=O)NC7=O)cc6F)CC5)CC4F)cc3F)ncc2C(F)(F)F)CC1 (stereo not drawn) [I-1050] | A (A (>75% o)) | < 100 nM
CC1(O)CCN(c2nc(Nc3ccc(S(=O)(=O)NC4CCN(CC5CCN(c6ccc(C7CCC(=O)NC7=O)c(F)c6)CC5)CC4F)cc3F)ncc2C(F)(F)F)CC1 (stereo not drawn) [I-1051] | A (A (>75% o)) | < 100 nM
